# Measured values taken from patent publication US20060281778A1, “Compounds for inhibiting KSP Kinesin activity” (Schering Corporation, priority 2005, published 2006).
# pIC50: −log10 of the molar value.
# Molecular target: T1, KSP motor domain (Homo sapiens, UniProt P52732)
# T1 sequence (P52732 18-359 limits assumed): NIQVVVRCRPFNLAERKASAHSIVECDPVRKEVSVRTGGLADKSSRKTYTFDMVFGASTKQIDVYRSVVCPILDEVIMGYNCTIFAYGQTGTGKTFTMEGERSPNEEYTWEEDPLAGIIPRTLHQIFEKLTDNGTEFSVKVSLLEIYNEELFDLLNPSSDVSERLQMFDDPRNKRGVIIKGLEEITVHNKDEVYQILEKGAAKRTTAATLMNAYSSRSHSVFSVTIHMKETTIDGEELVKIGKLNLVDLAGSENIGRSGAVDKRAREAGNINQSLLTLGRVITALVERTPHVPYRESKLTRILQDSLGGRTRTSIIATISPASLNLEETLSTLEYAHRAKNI
# Assay: KSP endpoint assay (microtubule-stimulated ATPase, Biomol green, OD620)
# Assay type: biochemical
# Conditions: not given
# Description: Serial dilutions of the compounds were prepared in a low binding, 96-well microtiter plate (Costar #3600) using 40% DMSO (Fisher BP231). The diluted compounds were added to a 384-well microtiter plate (Fisher 12-565-506). […] Following a 10 minute incubation, ATP (Sigma A-3377) (final concentration of ATP: 100 μM) was added to start the reaction. The final reaction volume was 25 μL. Final test compound concentration ranged from 50 μM to 5 nM, and 10 μM to 0.128 nM. The reaction was incubated for 1 hour at room temperature. The reaction was stopped by the addition of 50 μL Biomol green reagent (Biomol AK111) per well, and was allowed to incubate for 20 minutes at room temperature. The 384-well microtiter plate was then transferred to an absorbance reader (Molecular Devices SpectraMax plus) and a single measurement was taken at 620 nm.
# For both endpoint and kinetic assays, the percent activity for each concentration is calculated using the following equation: Y=((X−background)/(positive control−background))*100
# Y is the % activity and X is the measured reading (OD620 or rate)
# For an IC50 determination, the % activity was fit by the following equation using a nonlinear curve-fitting program for sigmoidal dose-responses (variable slopes) (GraphPad Prizm). Y=Bottom+(Top−Bottom)/(1+10ˆ((Log EC50−X)*HillSlope))
# All IC50 values are obtained from the end point assay.
row,Compound,pIC50
1,"C[Si](C)(C)c1ccc2nc3sc(C(N)=O)cc3cc2c1 [Compound 12, 6-(trimethylsilyl)thieno[2,3-b]quinoline-2-carboxamide]",7.42

# Same assay, conditions: endpoint assay; 2.5-10 nM KSP motor domain, 55 μg/mL microtubules, 100 μM ATP, 1 hour at room temperature; read-out: IC50 (KSP inhibitory activity, endpoint assay)
row,Compound,pIC50
1,"CC(C)(C)c1ccc2nc3sc(C#N)cc3cc2c1 [Compound 1, 6-tert-butyl-thieno[2,3-b]quinoline-2-carbonitrile]",6.80
2,"CC(C)(C)c1ccc2nc3sc(C(N)=O)cc3cc2c1 [Compound 2, 6-tert-butyl-thieno[2,3-b]quinoline-2-carboxylic acid amide]",7.10
3,"CC(C)(C)c1ccc2nc3sc(C(=O)O)cc3cc2c1 [Compound 3, 6-tert-butyl-thieno[2,3-b]quinoline-2-carboxylic acid]",< 5.00
4,"CC(C)(C)OC(=O)NCCNC(=O)c1cc2cc3cc(C(C)(C)C)ccc3nc2s1 [Compound 4, {2-[(6-tert-Butyl-thieno[2,3-b]quinoline-2-carbonyl)amino]ethyl}carbamic acid tert-butyl ester]",< 5.00
5,"CC(C)(C)c1ccc2nc3sc(C(=O)NCCN)cc3cc2c1 [Compound 5, 6-tert-butyl-thieno[2,3-b]quinoline-2-carboxylic acid (2-aminoethyl)amide]",7.15
6,"CNCCNC(=O)c1cc2cc3cc(C(C)(C)C)ccc3nc2s1 [Compound 6, 6-tert-butyl-thieno[2,3-b]quinoline-2-carboxylic acid (2-methylaminoethyl)amide]",6.54
7,"CN(C)CCNC(=O)c1cc2cc3cc(C(C)(C)C)ccc3nc2s1 [Compound 7, 6-tert-butyl-thieno[2,3-b]quinoline-2-carboxylic acid (2-dimethylaminoethyl)-amide]",< 5.00
8,"CC(C)(C)c1ccc2nc3sc(C(=O)NCCC#N)cc3cc2c1 [Compound 8, 6-tert-Butyl-thieno[2,3-b]quinoline-2-carboxylic acid (2-cyanoethyl)amide]",5.05
9,"CC(C)(C)c1ccc2nc3sc(C(=O)NCC#N)cc3cc2c1 [Compound 9, 6-tert-butyl-thieno[2,3-b]quinoline-2-carboxylic acid cyanomethylamide]",6.22
10,"COc1ccc(CN2CC(NC(=O)c3cc4cc5cc(C(C)(C)C)ccc5nc4s3)C2=O)c(OC)c1 (centres unmarked) [Compound 10, 6-tert-butyl-thieno[2,3-b]quinoline-2-carboxylic acid [1-(2,4-dimethoxybenzyl)-2-oxo-azetidin-3-yl]amide]",< 5.00
11,"CC(C)(C)c1ccc2nc3sc(C(=O)NC4CNC4=O)cc3cc2c1 (centres unmarked) [Compound 11, 6-tert-butyl-thieno[2,3-b]quinoline-2-carboxylic acid (2-oxo-azetidin-3-yl)amide]",5.08
12,"CC(C)(C)c1ccc2nc3sc(C(=O)N[C@H](CN)c4ccccc4)cc3cc2c1 [Compound 13, 6-tert-butyl-thieno[2,3-b]quinoline-2-carboxylic acid (2-amino-1-(S)-phenyl-ethyl)-amide]",7.46
13,"CC(C)(C)c1ccc2nc3sc(C(=O)N[C@H](CN)c4cccc(N)c4)cc3cc2c1 [Compound 14, 6-tert-butyl-thieno[2,3-b]quinoline-2-carboxylic acid [2(S)-amino-1-(3-amino-phenyl)-ethyl]-amide]",7.60
14,"CC(C)(C)c1ccc2nc3sc(C(=O)N[C@H](CN)c4cccc(NC(=O)c5cnccn5)c4)cc3cc2c1 [Compound 15, 6-tert-butyl-thieno[2,3-b]quinoline-2-carboxylic acid (2-amino-1(S)-{3-[(pyrazine-2-carbonyl)-amino]-phenyl}-ethyl)-amide]",7.52
15,CC(C)(C)c1ccc2nc3sc(C(=O)N[C@H](CN)c4cccc(NC(=O)c5nccnc5N)c4)cc3cc2c1 [Compound 16],7.59
16,"Cc1cc(C(=O)Nc2cccc([C@@H](CN)NC(=O)c3cc4cc5cc(C(C)(C)C)ccc5nc4s3)c2)no1 [Compound 17, 6-tert-butyl-thieno[2,3-b]quinoline-2-carboxylic acid (2-amino-1(S)-{3-[(5-methyl-isoxazole-3-carbonyl)-amino]-phenyl}-ethyl)-amide]",7.44
